BindingDB's records for patent US11760761 (Aligos Therapeutics, 2023)

What follows are compounds tested against Programmed cell death 1 ligand/protein 1 (Homo sapiens, UniProt Q9NZQ7) (assay: PDL1/PD1 Binding Assay).
Programmed cell death 1 ligand/protein 1, sequence (Q9NZQ7 whole entry): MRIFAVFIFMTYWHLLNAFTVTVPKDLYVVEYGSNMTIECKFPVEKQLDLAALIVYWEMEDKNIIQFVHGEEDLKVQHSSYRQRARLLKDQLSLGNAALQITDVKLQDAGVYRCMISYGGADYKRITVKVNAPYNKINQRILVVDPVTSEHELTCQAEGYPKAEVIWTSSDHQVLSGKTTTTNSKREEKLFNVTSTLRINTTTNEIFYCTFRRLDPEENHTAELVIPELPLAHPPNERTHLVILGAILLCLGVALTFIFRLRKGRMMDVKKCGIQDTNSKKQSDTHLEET
Programmed cell death 1 ligand/protein 1, sequence (Q15116 whole entry, further chain): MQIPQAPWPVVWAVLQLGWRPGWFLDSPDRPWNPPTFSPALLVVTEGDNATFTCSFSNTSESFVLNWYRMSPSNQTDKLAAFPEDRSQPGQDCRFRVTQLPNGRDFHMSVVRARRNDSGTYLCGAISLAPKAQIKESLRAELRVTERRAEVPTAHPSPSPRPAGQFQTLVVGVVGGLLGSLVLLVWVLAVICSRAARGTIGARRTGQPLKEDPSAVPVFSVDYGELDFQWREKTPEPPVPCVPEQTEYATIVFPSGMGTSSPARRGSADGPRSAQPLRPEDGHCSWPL
Description: Compounds to be tested were serially diluted in DMSO, and further diluted in assay buffer (25 mM Hepes pH 7.4, 150 mM NaCl, 0.005% Tween 20, BSA 0.01%). Diluted compounds were added to the wells with final concentration of DMSO at 1%. PDL1-6×His protein was added to the wells, mixed well with compound. The plates were incubated for 30 min at room temperature. PD1-Fc-Avi-Biotin protein was added to the wells. Final concentration of PDL1 and PD1 protein is 0.3 nM and 2.5 nM, respectively. After a binding time of 30 min at room temperature, Anti-6×His Acceptor beads (final concentration 20 ug/ml) were added to the wells, and the incubation continued for 1 h. Streptavidin Donor beads (final concentration 20 ug/mL) were added at reduced light. The plates were sealed with foil and incubated in the dark for additional 1 h or overnight before reading on an Envision reader.
In the case of COc1cc(-c2cccc(-c3cccc(-c4cnc(CN5CC6(CCC(=O)N6)C5)c(OC)n4)c3Cl)c2Cl)cc2c1[C@H](NCC(=O)O)CC2 (single isomer, unassigned) [US11760761, Compound B-2], the IC50 is reported as < 10 nM. For COc1cc(-c2cccc(-c3cccc(-c4cnc(CN5CC6(CCC(=O)N6)C5)c(OC)n4)c3Cl)c2Cl)cc2c1[C@@H](NCC(=O)O)CC2 [US11760761, Compound B-1], the IC50 was < 10 nM. With COc1nc(-c2cccc(-c3cccc(-c4cc5c(c(OC)n4)[C@@H](NC[C@@H]4CCC(=O)N4)CC5)c3Cl)c2Cl)cnc1CN1CC2(CCC(=O)N2)C1 [US11760761, Compound C-1] the IC50 was < 10 nM. For COc1nc(-c2cccc(-c3cccc(-c4cc5c(c(OC)n4)[C@@H](NC[C@@H]4CCC(=O)N4)CC5)c3Cl)c2Cl)cnc1CN1CC2(C1)CN(C(C)=O)C2 [US11760761, Compound D-1], the IC50 was < 10 nM. With COc1nc(-c2cccc(-c3cccc(-c4cc5c(c(OC)n4)[C@@H](NC[C@@H]4CCC(=O)N4)CC5)c3Cl)c2Cl)ccc1CNC[C@@H]1CCC(=O)N1 [US11760761, Compound E-1] the IC50 was < 10 nM. COc1nc(-c2cccc(-c3cccc(-c4cc5c(c(OC)n4)[C@@H](NC[C@@H]4CCC(=O)N4)CC5)c3Cl)c2Cl)cc(C)c1CN1CC2(C1)CN(C(C)=O)C2 [US11760761, Compound E-2] was tested, and the IC50 was < 10 nM. In the case of COc1nc(-c2cccc(-c3cccc(-c4cc5c(c(OC)n4)[C@H](NC[C@@H]4CCC(=O)N4)CO5)c3Cl)c2Cl)ccc1CNC[C@@H]1CCC(=O)N1 [US11760761, Compound E-6], the IC50 is reported as < 10 nM. COc1nc(-c2cccc(-c3cccc(-c4cc5c(c(OC)n4)[C@H](NC[C@@H]4CCC(=O)N4)CO5)c3Cl)c2Cl)ccc1CN1CC(OC)C1 [US11760761, Compound E-7] was tested, and the IC50 was < 10 nM. With COc1nc(-c2cccc(-c3cccc(-c4cc5c(c(OC)n4)C(N4CCC[C@@H](C(=O)O)C4)CC5)c3Cl)c2Cl)cnc1CN1CC(O)C1 (stereo not given in full) [US11760761, Compound F-1] the IC50 was < 10 nM. With CCOC(=O)C1CN([C@H]2CCc3cc(-c4cccc(-c5cccc(-c6cnc(CN7CC(O)C7)c(OC)n6)c5Cl)c4Cl)nc(OC)c32)C1 [US11760761, Compound G-1] the IC50 was < 10 nM. With COc1nc(-c2cccc(-c3cccc(-c4cc5c(c(OC)n4)[C@@H](N4CC(C(=O)O)C4)CC5)c3Cl)c2Cl)cnc1CN1CC(O)C1 [US11760761, Compound H-1] the IC50 was < 10 nM. With CCOC(=O)CN1CCc2c(cc(-c3cccc(-c4cccc(-c5cnc(CN6CC(O)C6)c(OC)n5)c4Cl)c3Cl)nc2OC)C1 [US11760761, Compound I-1] the IC50 was < 10 nM. With COc1nc(-c2cccc(-c3cccc(-c4cc5c(c(OC)n4)CCN(CC(=O)O)C5)c3Cl)c2Cl)cnc1CN1CC(O)C1 [US11760761, Compound J-1] the IC50 was < 10 nM. COc1nc(-c2cccc(-c3cccc(-c4cc5c(c(OC)n4)CCN(C[C@@H]4CCC(=O)N4)C5)c3Cl)c2Cl)cnc1CN1CC2(CCC(=O)N2)C1 [US11760761, Compound K-1] was tested, and the IC50 was < 10 nM. In the case of COCCN1CCc2c(cc(-c3cccc(-c4cccc(-c5cnc(CN6CC7(CCC(=O)N7)C6)c(OC)n5)c4Cl)c3Cl)nc2OC)C1 [US11760761, Compound K-2], the IC50 is reported as < 10 nM.
